Experimental data from PubChem BioAssay (NCI).
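Tested at 5 concentrations; 48 h exposure; 96-well plates; endpoints linearly interpolated, else capped at highest concentration. GI50: concentration for 50% inhibition of growth. At the TGI there is no net growth.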

Assays:
Assay in all cases: inhibition of tumour cell growth, NCI panel, 48 h
UACC-62 melanoma = tested on: UACC-62 melanoma
SK-MEL-2 melanoma = tested on: SK-MEL-2 melanoma
UACC-257 melanoma = tested on: UACC-257 melanoma
MCF7 breast = tested on: MCF7 breast
HCC-2998 colon = tested on: HCC-2998 colon
786-0 renal = tested on: 786-0 renal
A549 NSCLC = tested on: A549 NSCLC
NCI-H460 lung = tested on: NCI-H460 lung
HCT-116 colon = tested on: HCT-116 colon
SN12C renal = tested on: SN12C renal
MDA-MB-435 = tested on: MDA-MB-435
BT-549 breast = tested on: BT-549 breast
SK-MEL-5 melanoma = tested on: SK-MEL-5 melanoma
MDA-MB-231 breast = tested on: MDA-MB-231 breast
OVCAR-3 ovarian = tested on: OVCAR-3 ovarian
SK-MEL-28 melanoma = tested on: SK-MEL-28 melanoma
HCT-15 colon = tested on: HCT-15 colon
NCI/ADR-RES ovarian = tested on: NCI/ADR-RES ovarian
ACHN renal = tested on: ACHN renal
SK-OV-3 ovarian = tested on: SK-OV-3 ovarian
IGROV1 ovarian = tested on: IGROV1 ovarian
M14 melanoma = tested on: M14 melanoma
SNB-75 CNS = tested on: SNB-75 CNS
SW-620 colon = tested on: SW-620 colon
NCI-H522 lung = tested on: NCI-H522 lung
COLO 205 colon = tested on: COLO 205 colon
SNB-19 CNS = tested on: SNB-19 CNS
HOP-92 NSCLC = tested on: HOP-92 NSCLC
EKVX NSCLC = tested on: EKVX NSCLC

## COc1cc(N=Nc2ccc(O)c3ncccc23)c2ncccc2c1
UACC-62 melanoma
  TGI: 7.68 µM
SK-MEL-2 melanoma
  GI50: 8.4 µM
  TGI: > 100 µM
UACC-257 melanoma
  GI50: 10.9 µM
  TGI: > 100 µM
MCF7 breast
  GI50: 2.18 µM
  TGI: > 100 µM
HCC-2998 colon
  GI50: 3.65 µM
  TGI: > 100 µM
786-0 renal
  GI50: 3.43 µM
  TGI: 24.2 µM
A549 NSCLC
  GI50: 8.04 µM
  TGI: > 100 µM
NCI-H460 lung
  GI50: 3.13 µM
  TGI: > 100 µM
HCT-116 colon
  GI50: 2.56 µM
  TGI: > 100 µM
SN12C renal
  GI50: 4.45 µM
  TGI: > 100 µM
MDA-MB-435
  GI50: 4.64 µM
  TGI: > 100 µM
BT-549 breast
  GI50: 4.31 µM
  TGI: > 100 µM
SK-MEL-5 melanoma
  GI50: 2.09 µM
  TGI: 13.3 µM
MDA-MB-231 breast
  GI50: 3.16 µM
  TGI: > 100 µM
OVCAR-3 ovarian
  GI50: 4.58 µM
  TGI: > 100 µM
SK-MEL-28 melanoma
  GI50: 4.06 µM
  TGI: > 100 µM
HCT-15 colon
  GI50: 0.923 µM
  TGI: > 100 µM
NCI/ADR-RES ovarian
  GI50: 1.02 µM
  TGI: 15.5 µM
ACHN renal
  GI50: 2.3 µM
  TGI: 14.2 µM
SK-OV-3 ovarian
  GI50: 5.57 µM
  TGI: > 100 µM
IGROV1 ovarian
  GI50: 3.67 µM
  TGI: > 100 µM
M14 melanoma
  GI50: 2.66 µM
  TGI: > 100 µM
SNB-75 CNS
  GI50: 4.53 µM
  TGI: > 100 µM
SW-620 colon
  GI50: 3.86 µM
  TGI: > 100 µM
NCI-H522 lung
  GI50: 4.26 µM
  TGI: > 100 µM
COLO 205 colon
  GI50: 5.65 µM
  TGI: > 100 µM
SNB-19 CNS
  GI50: 4.11 µM
  TGI: > 100 µM
HOP-92 NSCLC
  GI50: 1.97 µM
  TGI: > 100 µM
EKVX NSCLC
  GI50: 4.08 µM
  TGI: > 100 µM
